In patent publication US3950352A, “2,2-Dimethyl-3R-carboxy-6S-phenyl(or phenoxy)acetamido-1-oxa-4-aza-5R-bicyclo[3,2,0]heptan-7-one and processes for their production” (Queen's University, priority 1974, dated 1976):

Test: antibacterial activity (organism not stated)
Format: cell-based
Conditions: at levels of 250 mcg./ml.
Text: After overnight development in a system containing n-butanol 60:acetic acid:15: water 25, the strips were air dried and one set was sprayed with Riker penicillinase. Both sets were then subjected to bioautography on B. subtilis.

With `CC(C)=C(C(=O)O)N1C(=O)[C@H]2N=C(Cc3ccccc3)O[C@H]21` [oxazoline carboxylic acid, 2-benzyl-6-(1'-carboxy-2'-methylprop-1'-enyl)-1-oxa-3,6-diaza-4S,5R-bicyclo [3,2,0] hept-2-en-7-one] the antibacterial activity was “inactive”.
